The subject of test [1] is A549 cells. In words: Uptake and Retention Assay of 125I-CLR1404. The settings on record: 24 hours, 0.588-2.156 μM, serum free media. The class given is cell-based, human. As for the experimental part: The Uptake and Retention Assay was preformed as described previously. Briefly, A549 human NSCLC cells were plated at a density of 150,000 cells/ml in 6-well plates.
Cells were then allowed to adhere overnight. All plates were then treated with the indicated mass of either ^125I-CLR1404 with or without ^127I-CLR1401 as indicated by the experimental parameters.
Cells were incubated in the presence of drug for 24 hrs prior to collection. At 24 hrs post treatment, the media was removed and the cells were washed once with 1 ml of ice cold 1×PBS+1% BSA. The cells were then removed from the plate by trypsinization with 1 ml of 1× Trypsin 1×PBS solution and split into 2 samples of 500 μl each. Both sets of sample were pelleted by centrifugation for 30 seconds at 2000×g at room temperature. The supernatant was removed and discarded.
One pellet for each sample set was resuspended in 200 μl of 1×PBS (Tube 1, Sample 1), and the other pellet was resuspened in 100% EtOH (Tube 2, Sample 1). A 100 μl sample from Tube 1 was taken for evaluation of DNA content in order to determine cell number (data was generated using absorbance at 260 nm in a microplate reader). A 10 μl sample from Tube 2 was taken for evaluation of radioactivity content using a gamma counter. […] All treatments were preformed in Serum Free media. […]

The test system of test [2] is A549 cells. In words: Cell growth inhibition by MTT assay. The class given is cell-based, human. As for the experimental part:
2. Cell Growth Inhibition by ^127I-CLR1401. • 1) Growth inhibition induced by ^127I-CLR1401 was determined by MTT(3-(4,5-dimethylthiazol-2-yl)-2,5-diphenyl […] bromide) assay. MTT is a pale yellow substrate that is cleaved by living cells to yield a dark blue formazan product.
Briefly, A549 cells were plated at a density of 200,000 cells per well in a six well plate and allowed to adhere overnight.
The cells were then treated with varying concentrations of ^127I-CLR1401 (0.0078, 0.392, 0.784, 1.568, 3.137, 4.705, 7.84, 39.2, 78.4 μM) in triplicate and then collected for the MTT assay at the indicated time points. Cells were then incubated with 0.5 mg/ml MTT in 1×PBS for 3 hours at 37° C. with 5% CO2 in air.
Absorbance was measured at 540 nm using a Synergy HT microplate reader. The absorbance value at 540 nm is directly proportional to the number of viable cells present.
(In general: Tetrazolium assays rely on reduction of a dye to a coloured formazan, in cell work by metabolically active cells.)

Test [3] relates to active Akt (pAkt, S473). Nature of the test: Inhibition of Akt activation (pAkt Ser473 sandwich ELISA) in PC-3 cells. Type of test: cell-based. The conditions noted are these: Homo sapiens. How it is done:
PC-3 cells, obtained from American Type Culture Collection (ATCC), are a human prostate carcinoma cell line. PC-3 cells have a homozygous deletion of PTEN.
(§1) A549 and PC-3 cells were plated at a density of 200,000 cells per ml.
(§2) All treatments were preformed in triplicate.
(§3) A549 and PC-3 cells are treated with ^127I-CLR1401 for 24 hours. • 0, 3, 5, 10 μM of ^127I-CLR1401 • Protein was isolated from treated cells. • The level of activated Akt was determined by examining the phosphorylated (active) form at Ser473 by enzyme linked immunosorbent assay (ELISA). • PathScan Phospho-Akt1 (Ser473) Sandwich ELISA Kit (Cell Signaling #7160). • ELISA controls: • Negative Control: A549 and PC-3 cells treated with 50 μM LY294,002 for 24 hrs. LY294,002 is a specific cell permeable phosphatidylinositol 3-kinase (PI3K) inhibitor that inhibits the activation of Akt by affecting the amount of phosphatidylinositol(3,4,5) trisphosphate produced by PI3K. • Positive Control: A549 and PC-3 cells stimulated with 10 μg/ml Insulin for 24 hrs. • Negative Control: A549 in serum free media. • 1) The ELISA was preformed per the manufacturer's instructions. Briefly, 100 μg of protein from the cell lysates were incubated in the pre-coated 96-well plate overnight at 4° C. The wells were then washed 4 times with 1XWash Buffer (also provided). Then incubated with the primary Akt antibody for 2 hours at 37° C. with 5% CO2 in air. After the primary incubation the plate was then washed 4 times with 1XWash Buffer and incubated with the HRP-linked secondary antibody for 1 hour at 37° C. with 5% CO2 in air. The plate was then washed 4 times with 1× Wash Buffer and developed using the TMB substrate provided. TMB substrate (tetramethylbenzidine) is a colormetric substrate used in the ELISA assay. TMB (3,3″,5,5″-tetramethylbenzidine) is a chromogen that yields a blue color when oxidized with hydrogen peroxide (catalyzed by HRP) with major absorbances at 370 nm and 652 nm. The color then changes to yellow with the addition of sulfuric or phosphoric acid with maximum absorbance at 450 nm. it is used for the detection of target proteins that have been bound to an antibody that contains a Horseradish Peroxidase tag. • After the 10 minute incubation at 37° C. the reaction was stopped by the addition of stop buffer (also provided). The absorbance was then measured at 450 nm using a Synergy HT microplate reader (BioTek). Data are reported as absorbance at 450 nm.
For orientation: ELISA stands for enzyme-linked immunosorbent assay.

For test [4], the system named is active Akt (pAkt, S473). Nature of the test: Inhibition of Akt activation (pAkt Ser473 sandwich ELISA) in A549 cells. Type of test: cell-based. The settings on record: Homo sapiens. How it is done: A549 cells, obtained from American Type Culture Collection (ATCC), are a human non-small cell lung cancer cell line. A549 cells have wild-type functional PTEN.
as §1, §2, §3

[5] abbreviates: 3 μM, 24 hours, read-out: Percent Inhibition of Akt.
The mark [6] stands for this setting: 5 μM, 24 hours, read-out: Percent Inhibition of Akt.
[7] abbreviates: 10 μM, 24 hours, read-out: Percent Inhibition of Akt.

The values below come from patent US20110064661A1, “NON-RADIOACTIVE PHOSPHOLIPID COMPOUNDS, COMPOSITIONS, AND METHODS OF USE” (priority 2009, published 2011).

With “18-(p-Iodophenyl)octadecyl phosphocholine [^125I-CLR1404]”, the “uptake and retention of 125I-CLR1404 with increasing mass dose of 125I-CLR1404” value with A549 cells [1] is “distinct increase in the amount of compound taken up and retained”.

On to `C[N+](C)(C)CCOP(=O)([O-])OCCCCCCCCCCCCCCCCCCc1ccc(I)cc1` [^127I-CLR1401, 18-(p-Iodophenyl)octadecyl phosphocholine], for which the IC50 with A549 cells [2] (Homo sapiens, A549 cells, MTT, read-out: 50% inhibitory concentration for cell growth) stood at 4.5 µM; in the test with active Akt (pAkt, S473) [3], 5 µM; with active Akt (pAkt, S473) [4], 5.9 µM. Moreover, the “effect on the growth of A549 cells” value in the test with A549 cells [2] (low doses, FIG. 5A) is “no significant effect”. The inhibition at 3 µM in the test on active Akt (pAkt, S473) [3] (setting [5]) is 21%; in the test with active Akt (pAkt, S473) [4] (setting [5]), 26%. Moreover, the inhibition at 5 µM in the test on active Akt (pAkt, S473) [3] (setting [6]) amounted to 61%; in the test with active Akt (pAkt, S473) [4] (setting [6]), 42%. Besides, the inhibition at 10 µM in the test with active Akt (pAkt, S473) [3] (setting [7]) worked out at 97%; in the test with active Akt (pAkt, S473) [4] (setting [7]), 85%.

For orientation: inhibition means the drop in the measured response relative to a control, in per cent.
